Here are results for 36 molecules from publication PMC9412300, “In Vitro Evaluation and Mitigation of Niclosamide’s Liabilities as a COVID-19 Treatment” (Vaccines, 2022).

Like-named read-outs stand apart in the source and are kept apart here. Bounds are passed on as bounds.

The test system of data set [1] is SARS-CoV-2 WA1 (wildtype). The data set can be described thus: microbe, parasite or virus in culture. The class given is cell-based.
In data set [2] the test system is SARS-CoV-2 B.1.1.7 (alpha). Put plainly: microbe, parasite or virus in culture. In kind it is cell-based.
Data set [3] in a line: Cell viability in VeroE6, shortened 24 h infection assay. The settings on record: African green monkey.
A further data set relates to H1437 cells. The data set can be described thus: Cell viability (cell count per well) in H1437, 72 h compound exposure. The conditions noted are these: H1437 infected with WA1, 72 h compound exposure. In kind it is cell-based, human.
The nature of data set [4]: Cell viability (cell count per well) in H1437, 72 h compound exposure. The conditions noted are these: human. The class given is cell-based, human.
Data set [5] can be described thus: in vitro. The settings on record: African green monkey.
Data set [6] is described as follows: in vitro. The conditions noted are these: African green monkey. The source holds these as a separate data set.
In another data set the test system is SARS-CoV-2. Details: method as in PMID 35138402. The settings on record: phase 2, 2 g orally for 7 days; cited from earlier work.
The subject of data set [7] is SARS-CoV-2 B.1.617.2 (delta). Put plainly: microbe, parasite or virus in culture. In kind it is cell-based. The settings on record: Severe acute respiratory syndrome coronavirus 2, Vero C1008; read-out: IC50 against B.1.617.2, 24 h infection.
On the set-up of data set [8]: method as in PMID 33842908. The settings on record: phase 1, 50 mg over 2.5 days inhalable/intranasal; cited from earlier work.
On the set-up of data set [9]: method as in PMID 26848771, PMID 31040114. The settings on record: cited from earlier work.
On the set-up of data set [10]: method as in PMID 26848771, PMID 31040114. The settings on record: cited from earlier work. This is another data set of the same source.
For the next data set, the system named is SARS-CoV-2 P.1 (gamma). Put plainly: microbe, parasite or virus in culture. The class given is cell-based. The settings on record: Severe acute respiratory syndrome coronavirus 2, Vero C1008; read-out: IC50 against P.1, 24 h infection.
The test system of another data set is SARS-CoV. The conditions noted are these: cited from earlier work.
The conditions of data set [11]: rats, oral administration at 5 mg/kg; cited from earlier work.
In data set [12] the test system is SARS-CoV-2 B.1.351 (beta). The data set can be described thus: microbe, parasite or virus in culture. In kind it is cell-based. The conditions noted are these: Severe acute respiratory syndrome coronavirus 2, Vero C1008; read-out: IC50 against B.1.351, 24 h infection.
Setting [13] is: Severe acute respiratory syndrome coronavirus 2, Vero C1008, 24 h; read-out: IC50 WA1 (protonophores).
Setting [14] is: Severe acute respiratory syndrome coronavirus 2, Vero C1008, 24 h; read-out: IC50 B.1.1.7 (protonophores).
The mark [15] stands for this setting: H1437 cells infected with SARS-CoV-2 WA1, H1437 infected with WA1, 72 h compound exposure, read-out: H1437 (WA1) CC50.

As to `O=c1oc2ccccc2c(O)c1Cc1c(O)c2ccccc2oc1=O` [Dicumarol, dicumarol], the IC50 in data set [1] (setting [13]) and in data set [2] (setting [14]) was greater than 100 µM throughout. Further, the CC50 at 25 h in [3] was greater than 100 µM.
As to `CC(C)(C)c1cccc(C(=O)Nc2ccc([N+](=O)[O-])cc2Cl)c1O` [Compound 31], the CC50 in the data set with H1437 cells was determined as 1.11 µM; in the data set with VeroE6 cells, 7.21 µM.
Take `CC(C)(C)c1ccc(O)c(C(=O)Nc2ccc([N+](=O)[O-])cc2Cl)c1` [Compound 11]: in [4] (setting [15]), the CC50 at 72 h stood at 1.92 µM. The same molecule yielded a CC50 in “in vitro [5]” of 3.41 µM.
Turning to `COc1ccc(O)c(C(=O)Nc2ccc([N+](=O)[O-])cc2Cl)c1` [Compound 12], the results for the CC50 in the data set with H1437 cells and with VeroE6 cells were 7.53 µM and 10.3 µM, respectively.
For `COc1ccc(O)c(C(=O)Nc2ccc([N+](=O)[O-])cc2Cl)c1` [Compound 4], in that order: 8.94 µM and 10.1 µM.
On to `CC(C)(C)c1ccc(O)c(C(=O)Nc2ccc(C(=O)O)cc2Cl)c1` [Compound 14], for which the results for the CC50 with H1437 cells and in the data set on VeroE6 cells were greater than 20 µM and 14.2 µM, respectively.
For the molecule `Cc1ccc(NC(=O)c2cc(Cl)ccc2O)c(Cl)c1` [Compound 6], the CC50 in the data set on H1437 cells amounted to 6.05 µM; in the data set on VeroE6 cells, 4.59 µM.
Regarding `COC(=O)c1ccc(NC(=O)c2cc(C(C)(C)C)ccc2O)c(Cl)c1` [Compound 13], the CC50 in the data set on H1437 cells is greater than 20 µM; with VeroE6 cells, 14.6 µM.
Consider `COC(=O)c1ccc(NC(=O)c2cc(Cl)ccc2O)c(Cl)c1` [Compound 7], for which the CC50 at 72 h in [4] (setting [15]) is greater than 20 µM. This molecule also returned a CC50 in the data set “in vitro [5]” of 8.14 µM.
Take `COC(=O)c1ccc(NC(=O)c2cccc(C(C)(C)C)c2O)c(Cl)c1` [Compound 25]: the CC50 in the data set with H1437 cells and in the data set with VeroE6 cells was greater than 20 µM each time.
Take `O=C(Nc1cc(Cl)cc(Cl)c1O)c1c(O)c(Cl)cc(Cl)c1Cl` [Oxyclozanide, oxyclozanide]: the IC50 in data set [1] (setting [13]) amounted to 64 µM; in data set [2] (setting [14]), 20 µM. Also, the CC50 at 25 h in data set [3] is greater than 100 µM.
Consider `O=[N+]([O-])c1ccc(O)c([N+](=O)[O-])c1` [2,4 DNP], for which the IC50 in data set [1] (setting [13]) and in data set [2] (setting [14]) was greater than 100 µM in each case. In the data set “in vitro [6]”, this molecule gave a CC50 greater than 100 µM.
For `Cc1cc(C(=O)O)ccc1NC(=O)c1cc(C(C)(C)C)ccc1O` [Compound 16], the CC50 with H1437 cells and in the data set on VeroE6 cells was greater than 20 µM throughout.
Take `N#Cc1ccc(NC(=O)c2cc(Cl)ccc2O)c(Cl)c1` [Compound 24]: the CC50 at 72 h in [4] (setting [15]) worked out at 0.88 µM. Further, the CC50 in “in vitro [5]” turned out to be 4.72 µM.
With `O=C(O)c1ccc(NC(=O)c2cc(Cl)ccc2O)c(Cl)c1` [Compound 8], the CC50 in the data set with H1437 cells and in the data set on VeroE6 cells was greater than 20 µM throughout.
With `Cc1cc(NC(=O)c2cc(C(C)(C)C)cc(C(C)(C)C)c2O)ccc1C(=O)O` [Compound 20], the CC50 in the data set with H1437 cells and in the data set with VeroE6 cells was greater than 20 µM each time.
As to `CC(C)(C)c1cccc(C(=O)Nc2ccc(NS(C)(=O)=O)cc2Cl)c1O` [Compound 33], the CC50 in the data set with H1437 cells and in the data set with VeroE6 cells was greater than 20 µM each time.
`COc1ccc(O)c(C(=O)Nc2ccc(C(=O)O)cc2C)c1` [Compound 28]: the CC50 in the data set on H1437 cells and with VeroE6 cells was greater than 20 µM each time.
With `Cc1ccc(O)c(C(=O)Nc2ccc([N+](=O)[O-])cc2Cl)c1` [Compound 3], the CC50 was 3.06 µM in the data set with H1437 cells and 6.28 µM with VeroE6 cells.
As to `COC(=O)c1ccc(NC(=O)c2cc(C(F)(F)F)ccc2O)c(C)c1` [Compound 23], the CC50 in the data set on H1437 cells and with VeroE6 cells was greater than 20 µM throughout.
Take `CC(C)(C)c1cccc(C(=O)Nc2ccc(C(=O)O)cc2Cl)c1O` [Compound 30]: the CC50 in the data set on H1437 cells and in the data set on VeroE6 cells was greater than 20 µM throughout.
Turning to `CC(C)(C)c1cc(C(=O)Nc2ccc(C(=O)O)cc2Cl)c(O)c(C(C)(C)C)c1` [Compound 26], the CC50 with H1437 cells and in the data set with VeroE6 cells was greater than 20 µM each time.
With `O=C(Nc1ccc(Br)cc1Cl)c1cc(Cl)ccc1O` [Compound 34], the figures for the CC50 in the data set on H1437 cells and in the data set with VeroE6 cells were 3.62 µM and 5.47 µM, respectively.
On the same counts, the results for `CC(C)(C)c1ccc(O)c(C(=O)Nc2ccc(C(=O)O)cc2F)c1` [Compound 15] are greater than 20 µM and greater than 20 µM.
As for `O=C(Nc1ccccc1Cl)c1cc(Cl)ccc1O` [Compound 5], the CC50 is 18.6 µM with H1437 cells and 8.44 µM in the data set on VeroE6 cells.
On the same counts, the results for `CC(C)(C)c1cc(C(=O)Nc2ccc(NS(C)(=O)=O)cc2Cl)c(O)c(C(C)(C)C)c1` [Compound 18] are greater than 20 µM and greater than 20 µM.
Regarding `COc1ccc(NC(=O)c2cc(Cl)ccc2O)c(Cl)c1` [Compound 10], the results for the CC50 in the data set with H1437 cells and in the data set on VeroE6 cells were 18.9 µM and greater than 20 µM, respectively.
`CC(C)(C)c1cc(C(=O)Nc2ccc(N)cc2Cl)c(O)c(C(C)(C)C)c1` [Compound 19]: the CC50 in the data set on H1437 cells is greater than 20 µM; in the data set with VeroE6 cells, 17.6 µM.
For `O=C(Nc1ccc([N+](=O)[O-])cc1Cl)c1cc(Cl)ccc1O` [Niclosamide], the “effect on the duration of the contagious period of SARS-CoV-2” value with SARS-CoV-2 was “no statistically significant effect”. Besides, the IC50 in data set [7] came out at 0.774 ± 0.058 µM; in data set [1] (setting [13]), 3.5 µM; in data set [1] (Severe acute respiratory syndrome coronavirus 2, Vero C1008; read-out: IC50 against WA1, 24 h infection) it was 1.66 µM; in data set [2] (setting [14]), 0.25 µM; in data set [2] (Severe acute respiratory syndrome coronavirus 2, Vero C1008; read-out: IC50 against B.1.1.7, 24 h infection) it was 0.298 µM; in the data set on SARS-CoV-2 P.1 (gamma), 0.399 ± 0.034 µM. The IC50 in data set [12] came out at 0.44 ± 0.021 µM. The “participants with moderate lung irritation” value in [8] is recorded as 59%. The CC50 at 72 h in [4] (H1437 cells infected with SARS-CoV-2 B.1.1.7, H1437 infected with B.1.1.7, 72 h compound exposure, read-out: H1437 (B.1.1.7) CC50) came to 0.438 µM; in data set [4] (setting [15]), 17.1 µM. Further, the oral bioavailability in [9] is reported as less than 10%. Further, the water solubility result in data set [10] is listed as “poor”. This molecule also registered a CC50 at 25 h in [3] (VeroE6 cells infected with SARS-CoV-2, CC50 (protonophores), VeroE6, 24 h infection conditions, starting concentration 100 μM) of 66 µM. This molecule registered a CC50 in the data set “in vitro [5]” of 1.05 µM. In the data set on SARS-CoV, the “inhibition of SARS-CoV viral replication in vitro” value is “low micromolar potency”. Moreover, the “maximal serum concentration (Cmax)” value in [11] is recorded as 354 ± 152 ng/mL.
Regarding `COC(=O)c1ccc(NC(=O)c2cc(C3CCCCC3)ccc2O)c(Cl)c1` [Compound 21], the CC50 with H1437 cells and in the data set on VeroE6 cells was greater than 20 µM throughout.
As to `CC(C)(C)c1cccc(C(=O)Nc2ccc(N)cc2Cl)c1O` [Compound 32], the CC50 in the data set with H1437 cells and in the data set on VeroE6 cells was greater than 20 µM throughout.
For `O=C(Nc1ccc([N+](=O)[O-])cc1Cl)c1cccc(Cl)c1` [Compound 9], the CC50 at 72 h in data set [4] (setting [15]) was greater than 20 µM. In addition, the CC50 in the data set “in vitro [5]” is greater than 20 µM.
For the molecule `Cc1cc(NC(=O)c2cc(C(C)(C)C)cc(C(C)(C)C)c2O)ccc1C(=O)O` [Compound 27], the CC50 with VeroE6 cells was greater than 20 µM.
As to `O=C(O)c1ccc(NC(=O)c2cc(C3CCCCC3)ccc2O)c(Cl)c1` [Compound 22], the CC50 in the data set with H1437 cells and in the data set on VeroE6 cells was greater than 20 µM in each case.
For `N#CC(C#N)=NNc1ccc(OC(F)(F)F)cc1` [FCCP], the IC50 in data set [1] (Severe acute respiratory syndrome coronavirus 2, Vero C1008, 24 h, read-out: IC50 WA1 (protonophores)) came to 35 µM; in data set [2] (Severe acute respiratory syndrome coronavirus 2, Vero C1008, 24 h, read-out: IC50 B.1.1.7 (protonophores)), 13 µM. The same molecule returned a CC50 at 25 h in data set [3] of 43 µM.
On to `O=C(Nc1ccc([N+](=O)[O-])cc1Cl)c1ccccc1O` [Compound 2], for which the CC50 at 72 h in data set [4] (setting [15]) was found to be 8.4 µM. For the same molecule, the CC50 in “in vitro [5]” was determined as 5.59 µM.

One may read the IC50 as the concentration that inhibits the measured activity by half.
